{
  "source": "patent US20160219881A1",
  "about": "“HERBICIDALLY ACTIVE 2-HALOGEN-4-ALKYNYL-PHENYL-PYRAZOLIDINE-DIONE OR PYRROLIDINE-DIONE DERIVATIVES” (SYNGENTA LIMITED, priority 2013, published 2016)",
  "type_in_all_cases": "in vivo",
  "key": {"[1]": {"system": "Triticum aestivum (TRZAW, winter wheat)", "assay": "Test 1A glasshouse assay, pre-emergence herbicidal activity", "conditions": "312 h, 13 days after application, read-out: Pre-Emergence Herbicidal Activity (% Phytotoxicity) TRZAW", "experimental": "(§1) Seeds of a variety of test species are sown in standard soil (usually sandy soil) in pots. After cultivation for one day (pre-emergence) or after 8 days cultivation (post-emergence) under controlled conditions in a glasshouse (at 24/16° C., day/night; 14 hours light; 65% humidity), the plants are sprayed with an aqueous spray solution derived from the formulation of the technical active ingredient (compound) in acetone/water (50:50) solution containing 0.5% Tween 20 (polyoxyethylene sorbitan monolaurate, CAS RN 9005-64-5). The test plants are then grown under controlled conditions in a glasshouse (at 24/16° C., day/night; 14 hours light; 65% humidity) and watered twice daily. 13 days after application of the test compounds, for pre- and post-emergence, the test is evaluated visually for percentage phytotoxicity to each plant (where 100%=total damage to plant; 0%=no damage to plant).\n(§2) Lolium perenne (LOLPE), Triticum aestivum (TRZAW, winter wheat), Alopecurus myosuroides (ALOMY), Echinochloa crus-galli (ECHCG), and Avena fatua (AVEFA). All these are grassy monocotyledonous weeds and/or (for wheat) grassy crops."}, "[2]": {"system": "Lolium perenne (LOLPE)", "assay": "Test 1A glasshouse assay, pre-emergence herbicidal activity", "conditions": "312 h, 13 days after application, read-out: Pre-Emergence Herbicidal Activity (% Phytotoxicity) LOLPE", "experimental": "as §1, §2"}, "[3]": {"system": "Avena fatua (AVEFA)", "assay": "Test 1A glasshouse assay, pre-emergence herbicidal activity", "conditions": "312 h, 13 days after application, read-out: Pre-Emergence Herbicidal Activity (% Phytotoxicity) AVEFA", "experimental": "as §1, §2"}, "[4]": {"system": "Triticum aestivum (TRZAW, winter wheat, variety ‘Hereward’)", "assay": "Test 1A glasshouse assay, post-emergence herbicidal activity", "conditions": "312 h, 13 days after application, read-out: Post-Emergence Herbicidal Activity (% Phytotoxicity) TRZAW", "experimental": "as §1\n(§3) Lolium perenne (LOLPE), Triticum aestivum (TRZAW, winter wheat, variety ‘Hereward’), Alopecurus myosuroides (ALOMY), Echinochloa crus-galli (ECHCG), and Avena fatua (AVEFA). All these are grassy monocotyledonous weeds and/or (for wheat) grassy crops."}, "[5]": {"system": "Lolium perenne (LOLPE)", "assay": "Test 1A glasshouse assay, post-emergence herbicidal activity", "conditions": "312 h, 13 days after application, read-out: Post-Emergence Herbicidal Activity (% Phytotoxicity) LOLPE", "experimental": "as §1, §3"}, "[6]": {"system": "Avena fatua (AVEFA)", "assay": "Test 1A glasshouse assay, post-emergence herbicidal activity", "conditions": "312 h, 13 days after application, read-out: Post-Emergence Herbicidal Activity (% Phytotoxicity) AVEFA", "experimental": "as §1, §3"}, "[7]": {"system": "Cloquintocet-mexyl seed-treated Winter Wheat (variety ‘Hereward’)", "assay": "Test 1B glasshouse assay, post-emergence phytotoxicity on winter wheat whose seed has been treated with cloquintocet-mexyl", "conditions": "Triticum aestivum, 312 h, seed treated with cloquintocet-mexyl 0.5 g/kg dry seed, 13 days after application, read-out: Post-Emergence Herbicidal Activity (% Phytotoxicity) Cloquintocet-mexyl seed-treated Winter Wheat (variety ‘Hereward’)", "experimental": "Seeds of the Winter Wheat variety ‘Hereward’ were seed treated with a wettable powder formulation of the cereal herbicide safener, cloquintocet-mexyl, at a rate of 0.5 grams per kilogram of dry seed, prior to the initiation of glasshouse testing. Three seeds were sown per 1.5 inch plastic pot into a standard soil (usually sandy soil) at a depth of 1 cm, prior to application of the test compounds and were watered and grown under controlled conditions in a glasshouse (at 24/16° C., day/night; 14 hours light; 65% humidity). After 8 days cultivation under these controlled conditions, the plants were sprayed post-emergence with an aqueous spray solution derived from the formulation of the technical active ingredient (compound) in acetone/water (50:50) solution containing 0.5% Tween 20 (polyoxyethylene sorbitan monolaurate, CAS RN 9005-64-5). The test plants were then grown on in a glasshouse under controlled conditions (at 24/16° C., day/night; 14 hours light; 65% humidity) and watered twice daily. 13 days after application of the test compounds, the test was evaluated visually for percentage phytotoxicity to each plant (where 100%=total damage to plant; 0%=no damage to plant)."}, "[8]": {"system": "Winter Wheat (variety ‘Hereward’)", "assay": "Test 1B glasshouse assay, post-emergence phytotoxicity on winter wheat", "conditions": "Triticum aestivum, 312 h, 13 days after application, read-out: Post-Emergence Herbicidal Activity (% Phytotoxicity) Winter Wheat (variety ‘Hereward’)", "experimental": "Seeds of the Winter Wheat variety ‘Hereward’ were sown in standard soil (usually sandy soil) in pots. After 8 days cultivation under controlled conditions in a glasshouse (at 24/16° C., day/night; 14 hours light; 65% humidity), which is post-emergence, the plants were sprayed with an aqueous spray solution derived from the formulation of the technical active ingredient (compound) in acetone/water (50:50) solution containing 0.5% Tween 20 (polyoxyethylene sorbitan monolaurate, CAS RN 9005-64-5). The test plants were then grown on in a glasshouse under controlled conditions (at 24/16° C., day/night; 14 hours light; 65% humidity) and watered twice daily. 13 days after application of the test compounds, the test was evaluated visually for percentage phytotoxicity to each plant (where 100%=total damage to plant; 0%=no damage to plant)."}},
  "data": [
    {"smiles": "CC#Cc1cc(C)c(C2C(=O)C(Cc3ccccn3)N(C)C2=O)c(C)c1", "note": "(stereo not drawn) [Compound A50, 3-(2,6-dimethyl-4-prop-1-ynyl-phenyl)-1-methyl-5-(2-pyridylmethyl)pyrrolidine-2,4-dione]", "values": [
      {"measurement": "inhibition at 62.5 g/ha", "setting": "[1]; 62.5 g/ha", "result": 70, "unit": "%"},
      {"measurement": "inhibition at 250 g/ha", "setting": "[1]; 250 g/ha", "result": 90, "unit": "%"},
      {"measurement": "inhibition at 62.5 g/ha", "setting": "[2]; 62.5 g/ha", "result": 70, "unit": "%"},
      {"measurement": "inhibition at 250 g/ha", "setting": "[2]; 250 g/ha", "result": 100, "unit": "%"},
      {"measurement": "inhibition at 62.5 g/ha", "setting": "[3]; 62.5 g/ha", "result": 60, "unit": "%"},
      {"measurement": "inhibition at 250 g/ha", "setting": "[3]; 250 g/ha", "result": 70, "unit": "%"},
      {"measurement": "inhibition at 15.625 g/ha", "setting": "[4]; 15.625 g/ha", "result": 30, "unit": "%"},
      {"measurement": "inhibition at 62.5 g/ha", "setting": "[4]; 62.5 g/ha", "result": 70, "unit": "%"},
      {"measurement": "inhibition at 250 g/ha", "setting": "[4]; 250 g/ha", "result": 80, "unit": "%"},
      {"measurement": "inhibition at 15.625 g/ha", "setting": "[5]; 15.625 g/ha", "result": 40, "unit": "%"},
      {"measurement": "inhibition at 62.5 g/ha", "setting": "[5]; 62.5 g/ha", "result": 70, "unit": "%"},
      {"measurement": "inhibition at 250 g/ha", "setting": "[5]; 250 g/ha", "result": 100, "unit": "%"},
      {"measurement": "inhibition at 15.625 g/ha", "setting": "[6]; 15.625 g/ha", "result": 50, "unit": "%"},
      {"measurement": "inhibition at 62.5 g/ha", "setting": "[6]; 62.5 g/ha", "result": 70, "unit": "%"},
      {"measurement": "inhibition at 250 g/ha", "setting": "[6]; 250 g/ha", "result": 100, "unit": "%"},
      {"measurement": "inhibition at 15.625 g/ha", "setting": "[7]; 15.625 g/ha", "result": 0, "unit": "%"},
      {"measurement": "inhibition at 62.5 g/ha", "setting": "[7]; 62.5 g/ha", "result": 40, "unit": "%"},
      {"measurement": "inhibition at 250 g/ha", "setting": "[7]; 250 g/ha", "result": 60, "unit": "%"},
      {"measurement": "inhibition at 15.625 g/ha", "setting": "[8]; 15.625 g/ha", "result": 30, "unit": "%"},
      {"measurement": "inhibition at 62.5 g/ha", "setting": "[8]; 62.5 g/ha", "result": 70, "unit": "%"},
      {"measurement": "inhibition at 250 g/ha", "setting": "[8]; 250 g/ha", "result": 80, "unit": "%"}
    ]}
  ]
}
